Patent US20050277586A1, “Peptide chemically modified with polyethylene glycol” (priority 2002, published 2005)

Key:
Vero cell = assay: Luciferase-expressing plasmid introduction into Vero cell; type: cell-based, monkey
Excerpt: A cell line established from monkey kidney (Vero cell) and a human bladder cancer cell (T24 cell) purchased from American Type Culture Collection (ATCC) and human lung cancer cell (A549 cell) purchased from Dainippon Pharmaceutical were inoculated on a 24 well culture plate (manufactured by NALGEN NUNC) at 1×10^5 cells/well. Vero cell and A549 cell were cultivated in DMEM (manufactured by Life Technologies Oriental) supplemented with 10% fetal bovine serum (hereinafter referred to as FBS, manufactured by NICHIREI), and T24 cell was cultivated in McCoy's 5a (manufactured by Life Technologies Oriental) supplemented with 10% FBS in 5% CO2 atmosphere at 37° C. for 24 hours. […] The luciferase activity expressed in the cell was then measured by the method instructed in luciferase assay system (manufactured by Promega). […]
20 μL of this cell lysate and 100 μL of the Luciferase Assay Reagent II attached to the kit was added to a fluorescence-measuring plate (Microlite™ 1 plate, manufactured by Dynatech), and after mixing, fluorescence was measured for 1 second by using a multilabel counter (ARVO™ SY1420 MULTILABEL COUNTER, manufactured by Wallac Beltold. […]

[1] = Affinity for phosphatidyl serine by surface plasmon resonance (Biacore 2000); type: binding; conditions: in the presence of 0.1 mg/mL BSA
Method: The specific affinity of the peptide for phosphatidyl serine was evaluated by means of surface plasmon resonance (SPR) using Biacore 2000 (manufactured by Biacore). To be more specific, phosphatidyl choline was immobilized on flow cell 1, and 50% of phosphatidyl serine and 50% of phosphatidyl choline were immobilized on flow cell 2 of HPA chip (manufactured by Biacore), and ability of the peptide to bind to the phospholipid was evaluated in the presence of 0.1 mg/mL BSA to thereby evaluate the affinity.

[2] = system: Vero cell, T24 cell, A549 cell; assay: Nucleic acid-introducing ability, luciferase-expressing plasmid (procedure of Example 9); type: cell-based
Excerpt: A cell line established from monkey kidney (Vero cell) and a human bladder cancer cell (T24 cell) purchased from American Type Culture Collection (ATCC) and human lung cancer cell (A549 cell) purchased from Dainippon Pharmaceutical were inoculated on a 24 well culture plate (manufactured by NALGEN NUNC) at 1×10^5 cells/well. Vero cell and A549 cell were cultivated in DMEM (manufactured by Life Technologies Oriental) supplemented with 10% fetal bovine serum (hereinafter referred to as FBS, manufactured by NICHIREI), and T24 cell was cultivated in McCoy's 5a (manufactured by Life Technologies Oriental) supplemented with 10% FBS in 5% CO2 atmosphere at 37° C. for 24 hours. After removing the medium, opti-MEM (manufactured by Life Technologies Oriental) prepared to have the concentration of the luciferase-expressing plasmid prepared in Example 7 of 1 μg/mL and the concentration of the peptide prepared in Example 1 of 1.25, 2.5, or 5 μM was added, and the cells were cultivated for 5 hours. Next, in the case of Vero cell and A549 cell, the culture medium was replaced with DMEM supplemented with 10% FBS, and in the case of T24 cell, the medium was replaced with McCoy's 5a supplemented with 10% FBS, and cultivation was continued in 5% CO2 atmosphere and at 37° C. for another 24 hours. The luciferase activity expressed in the cell was then measured by the method instructed in luciferase assay system (manufactured by Promega). To be more specific, the cells were washed with phosphate-buffered saline (hereinafter referred to as PBS, manufactured by SIGMA), and the cells were lyzed with Passive Lysis Buffer attached to the kit.
20 μL of this cell lysate and 100 μL of the Luciferase Assay Reagent II attached to the kit was added to a fluorescence-measuring plate (Microlite™ 1 plate, manufactured by Dynatech), and after mixing, fluorescence was measured for 1 second by using a multilabel counter (ARVO™ SY1420 MULTILABEL COUNTER, manufactured by Wallac Beltold.
Concentration of the protein in the cell lysate was measured by mixing 8 μL of the cell lysate and 200 μL of the protein assay solution (manufactured by Biorad) with 792 μL of ultrapure water in a disposable cuvette (UV fluorescent cuvette A204X, manufactured by Funakoshi), allowing the mixture to stand for 5 minutes at room temperature, and measuring the absorption at 595 nm with a spectrophotometer (DU640, manufactured by Beckman). Bovine serum albumin (BSA) was used for the standard protein. By using the thus obtained results, count per 1 second per 1 mg of protein of the cell lysate was calculated to thereby use the count as the luciferase activity, and the highest count in the three conditions of different peptide concentration was designated the gene-introducing ability of the peptide.

[3] = Measurement of turbidity in BSA (absorbance at 600 nm); type: physicochemical; conditions: 1% BSA, peptide 50 μM
Method: The solutions were evaluated for their absorbance at a wavelength of 600 nm by using a spectrophotometer (DU640, manufactured by Beckman).

OD 600 [3]: 0.03
Sequence: TRYLRIHPRSWVHQIALRLRYLRIHPRSWVHQIALRS [SEQ ID NO: 1]
Luciferase activity (Vero cell): 2.5 × 10^6 cps/mg protein
Binding to flow cell 2 (50% phosphatidyl serine, 50% phosphatidyl choline) and flow cell 1 (phosphatidyl choline) [1]: stronger
Nucleic acid-introducing ability ([2]; luciferase plasmid 1 μg/mL, highest count of peptide 1.25, 2.5 or 5 μM, cell line not stated): 3+ (1,000,000 to less than 10,000,000)
Ability of introducing the nucleic acid into a cell ([2]; procedure of Example 9): found to have the ability of introducing the nucleic acid into a cell
